PubChem BioAssay AID2060498 (Molecular Pharmacology Branch, DTP, NCI, 2025)

System: 171881-019-R-J1-PDC tumor spheroids, viability
Experiment: Anticancer human tumor 171881-019-R-J1-PDC patient-derived invasive breast carcinoma cell line growth inhibition [GQUAD]
Details: spheroids with HUVEC and MSC; for IC50: curve of first compound; for viability, T/C: stronger effect = lower value
In short: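 Multi-cell-type spheroids of tumor cells with HUVEC and mesenchymal stem cells, treated with drug combinations. Concentrations descend in half-log steps from near clinical Cmax, or from 10 microM where Cmax is unknown; viability read-out.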

[1] = second compound 0.0316 µM, first compound 0.0316 µM
[2] = second compound 0.0316 µM, first compound 0.1 µM
[3] = second compound 0.0316 µM, first compound 0.316 µM
[4] = second compound 0.0316 µM, first compound 1 µM
[5] = second compound 0.0316 µM, first compound 3.16 µM
[6] = second compound 0.0316 µM, first compound 10 µM
[7] = second compound 0.1 µM, first compound 0.0316 µM
[8] = second compound 0.1 µM, first compound 0.1 µM
[9] = second compound 0.1 µM, first compound 0.316 µM
[10] = second compound 0.1 µM, first compound 1 µM
[11] = second compound 0.1 µM, first compound 3.16 µM
[12] = second compound 0.1 µM, first compound 10 µM
[13] = second compound 0.316 µM, first compound 0.0316 µM
[14] = second compound 0.316 µM, first compound 0.1 µM
[15] = second compound 0.316 µM, first compound 0.316 µM
[16] = second compound 0.316 µM, first compound 1 µM
[17] = second compound 0.316 µM, first compound 3.16 µM
[18] = second compound 0.316 µM, first compound 10 µM
[19] = second compound 1 µM, first compound 0.0316 µM
[20] = second compound 1 µM, first compound 0.1 µM
[21] = second compound 1 µM, first compound 0.316 µM
[22] = second compound 1 µM, first compound 1 µM
[23] = second compound 1 µM, first compound 3.16 µM
[24] = second compound 1 µM, first compound 10 µM
[25] = second compound 3.16 µM, first compound 0.0316 µM
[26] = second compound 3.16 µM, first compound 0.1 µM
[27] = second compound 3.16 µM, first compound 0.316 µM
[28] = second compound 3.16 µM, first compound 1 µM
[29] = second compound 3.16 µM, first compound 3.16 µM
[30] = second compound 3.16 µM, first compound 10 µM
[31] = second compound 10 µM, first compound 0.0316 µM
[32] = second compound 10 µM, first compound 0.1 µM
[33] = second compound 10 µM, first compound 0.316 µM
[34] = second compound 10 µM, first compound 1 µM
[35] = second compound 10 µM, first compound 3.16 µM
[36] = second compound 10 µM, first compound 10 µM
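Further: spheroids exposed to compounds for 7 days.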
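Wherever viability, T/C is given: 100% = DMSO vehicle control viability.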

Q: For `COc1ccc([C@@H](O)c2cc(-c3ncnc4cc(N5CCOCC5)ccc34)c(F)cc2Cl)nn1` + Cc1cnc(CNC(=O)c2c(=O)c3ccc(N4CCCN(C)CC4)nc3n3c2sc2ccccc23)cn1, which IC50 (second compound 0.0316 µM) is on record?
A: 405 nM

Q: What about the IC50 (second compound 0.1 µM) of the same molecule?
A: 268 nM

Q: What about the IC50 (second compound 0.316 µM) of the same molecule?
A: 169 nM

Q: What about the IC50 (second compound 1 µM) of the same molecule?
A: 169 nM

Q: And the IC50 (second compound 3.16 µM)?
A: 112 nM

Q: And the IC50 (second compound 10 µM)?
A: 103 nM

Q: What about the viability, T/C [1] of the same molecule?
A: 93.2%

Q: What about the viability, T/C [2] of the same molecule?
A: 77.1%

Q: What about the viability, T/C [3] of the same molecule?
A: 60.5%

Q: What about the viability, T/C [4] of the same molecule?
A: 22.4%

Q: What about the viability, T/C [5] of the same molecule?
A: 9.13%

Q: And the viability, T/C [6]?
A: 5.12%

Q: And the viability, T/C [7]?
A: 75.6%

Q: What about the viability, T/C [8] of the same molecule?
A: 76%

Q: What about the viability, T/C [9] of the same molecule?
A: 43.7%

Q: What about the viability, T/C [10] of the same molecule?
A: 19.1%

Q: What about the viability, T/C [11] of the same molecule?
A: 8.81%

Q: And the viability, T/C [12]?
A: 4.57%

Q: What about the viability, T/C [13] of the same molecule?
A: 73.1%

Q: And the viability, T/C [14]?
A: 58%

Q: What about the viability, T/C [15] of the same molecule?
A: 40.5%

Q: And the viability, T/C [16]?
A: 17%

Q: What about the viability, T/C [17] of the same molecule?
A: 9.34%

Q: And the viability, T/C [18]?
A: 6.36%

Q: What about the viability, T/C [19] of the same molecule?
A: 64.9%

Q: And the viability, T/C [20]?
A: 56.8%

Q: And the viability, T/C [21]?
A: 41.8%

Q: And the viability, T/C [22]?
A: 18%

Q: What about the viability, T/C [23] of the same molecule?
A: 10.8%

Q: What about the viability, T/C [24] of the same molecule?
A: 4.62%

Q: What about the viability, T/C [25] of the same molecule?
A: 60.7%

Q: And the viability, T/C [26]?
A: 49.4%

Q: What about the viability, T/C [27] of the same molecule?
A: 39.4%

Q: What about the viability, T/C [28] of the same molecule?
A: 18.9%

Q: And the viability, T/C [29]?
A: 11.2%

Q: And the viability, T/C [30]?
A: 4.88%

Q: What about the viability, T/C [31] of the same molecule?
A: 53.8%

Q: And the viability, T/C [32]?
A: 52.3%

Q: What about the viability, T/C [33] of the same molecule?
A: 37.8%

Q: And the viability, T/C [34]?
A: 21.7%

Q: What about the viability, T/C [35] of the same molecule?
A: 11.8%

Q: And the viability, T/C [36]?
A: 4.99%

Q: What does the source list for `Cn1ncnc1[C@H]1c2n[nH]c(=O)c3cc(F)cc(c23)N[C@@H]1c1ccc(F)cc1` + Cc1cnc(CNC(=O)c2c(=O)c3ccc(N4CCCN(C)CC4)nc3n3c2sc2ccccc23)cn1?
A: IC50 (second compound 0.0316 µM): > 316 nM; IC50 (second compound 0.1 µM): > 316 nM; IC50 (second compound 0.316 µM): > 316 nM; IC50 (second compound 1 µM): > 316 nM; IC50 (second compound 3.16 µM): > 316 nM; IC50 (second compound 10 µM): > 316 nM; viability, T/C (second compound 0.0316 µM, first compound 0.000999 µM): 94.5%; viability, T/C (second compound 0.0316 µM, first compound 0.00316 µM): 86.1%; viability, T/C (second compound 0.0316 µM, first compound 0.00999 µM): 95.2%; viability, T/C [1]: 87.2%; viability, T/C (second compound 0.0316 µM, first compound 0.0999 µM): 79.1%; viability, T/C [3]: 73.6%; viability, T/C (second compound 0.1 µM, first compound 0.000999 µM): 82.2%; viability, T/C (second compound 0.1 µM, first compound 0.00316 µM): 83.2%; viability, T/C (second compound 0.1 µM, first compound 0.00999 µM): 82.4%; viability, T/C [7]: 76%; viability, T/C (second compound 0.1 µM, first compound 0.0999 µM): 63.3%; viability, T/C [9]: 59.9%; viability, T/C (second compound 0.316 µM, first compound 0.000999 µM): 73.7%; viability, T/C (second compound 0.316 µM, first compound 0.00316 µM): 74.3%; viability, T/C (second compound 0.316 µM, first compound 0.00999 µM): 67.5%; viability, T/C [13]: 63.5%; viability, T/C (second compound 0.316 µM, first compound 0.0999 µM): 64.4%; viability, T/C [15]: 65.1%; viability, T/C (second compound 1 µM, first compound 0.000999 µM): 68%; viability, T/C (second compound 1 µM, first compound 0.00316 µM): 59.8%; viability, T/C (second compound 1 µM, first compound 0.00999 µM): 70.4%; viability, T/C [19]: 63.5%; viability, T/C (second compound 1 µM, first compound 0.0999 µM): 63.5%; viability, T/C [21]: 61.9%; viability, T/C (second compound 3.16 µM, first compound 0.000999 µM): 61.3%; viability, T/C (second compound 3.16 µM, first compound 0.00316 µM): 60.1%; viability, T/C (second compound 3.16 µM, first compound 0.00999 µM): 61.2%; viability, T/C [25]: 64.7%; viability, T/C (second compound 3.16 µM, first compound 0.0999 µM): 65.1%; viability, T/C [27]: 59.1%; viability, T/C (second compound 10 µM, first compound 0.000999 µM): 58.6%; viability, T/C (second compound 10 µM, first compound 0.00316 µM): 63%; viability, T/C (second compound 10 µM, first compound 0.00999 µM): 60.4%; viability, T/C [31]: 59.9%; viability, T/C (second compound 10 µM, first compound 0.0999 µM): 65.9%; viability, T/C [33]: 60.4%

Q: What does the source list for `O=C(c1cc(Cc2n[nH]c(=O)c3ccccc23)ccc1F)N1CCN(C(=O)C2CC2)CC1` + Cc1cnc(CNC(=O)c2c(=O)c3ccc(N4CCCN(C)CC4)nc3n3c2sc2ccccc23)cn1?
A: IC50 (second compound 0.0316 µM): > 10000 nM; IC50 (second compound 0.1 µM): > 10000 nM; IC50 (second compound 0.316 µM): > 10000 nM; IC50 (second compound 1 µM): > 10000 nM; IC50 (second compound 3.16 µM): > 10000 nM; IC50 (second compound 10 µM): > 10000 nM; viability, T/C [1]: 97.3%; viability, T/C [2]: 93.3%; viability, T/C [3]: 87%; viability, T/C [4]: 87.1%; viability, T/C [5]: 80.9%; viability, T/C [6]: 75.1%; viability, T/C [7]: 79.9%; viability, T/C [8]: 82.7%; viability, T/C [9]: 76.3%; viability, T/C [10]: 68.4%; viability, T/C [11]: 64.1%; viability, T/C [12]: 62%; viability, T/C [13]: 70.1%; viability, T/C [14]: 69.8%; viability, T/C [15]: 71.3%; viability, T/C [16]: 65%; viability, T/C [17]: 67.8%; viability, T/C [18]: 58.2%; viability, T/C [19]: 66.6%; viability, T/C [20]: 61.5%; viability, T/C [21]: 68.9%; viability, T/C [22]: 58.6%; viability, T/C [23]: 64.1%; viability, T/C [24]: 57.8%; viability, T/C [25]: 59.4%; viability, T/C [26]: 55.4%; viability, T/C [27]: 64.6%; viability, T/C [28]: 56.5%; viability, T/C [29]: 55.3%; viability, T/C [30]: 55.7%; viability, T/C [31]: 54.3%; viability, T/C [32]: 60.4%; viability, T/C [33]: 57.9%; viability, T/C [34]: 55.5%; viability, T/C [35]: 59.3%; viability, T/C [36]: 55.4%
